This assay deals with IL-17 production from human Th17 cells. Description: IL-17 production from human Th17 cells.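 Further: purified human CD4+ T cells activated with anti-CD3 plus anti-CD28 and a Th17-inducing cytokine cocktail, with compound at serial concentrations versus no compound.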 It counts as cell-based. To be noted: IL-17A in supernatant by ELISA after 6 days, human CD4+ T cells under Th17 differentiation. (In general: An ELISA detects its analyte on a solid surface through an enzyme-linked reagent.)

As usually defined, the IC50 is the point on the concentration scale where inhibition reaches its midpoint.

The compound `Cc1c(NC(=O)c2ccc(F)c(C#N)c2)cnc2c1c([C@@H]1CCN(C(=O)C3CCCC3)C(C)(C)C1)cn2C` [Example 61, (R)-3-cyano-N-(3-(1-(cyclopentanecarbonyl)-2,2-dimethylpiperidin-4-yl)-1,4-dimethyl-1H-pyrrolo[2,3-b]pyridin-5-yl)-4-fluorobenzamide] gave an IC50 of 25.6 nM.

In turn, `COc1cc(Cl)cc(C(=O)Nc2cnc3c(c([C@@H]4CCN(C(=O)C(C)C)C(C)(C)C4)cn3C)c2C)c1` [Example 62, (R)-3-chloro-N-(3-(1-isobutyryl-2,2-dimethylpiperidin-4-yl)-1,4-dimethyl-1H-pyrrolo[2,3-b]pyridin-5-yl)-5-methoxybenzamide] returned an IC50 of 15.8 nM.

Regarding `COc1cc(Cl)cc(C(=O)Nc2cnc3c(c([C@@H]4CCN(C(=O)C5CCCC5)C(C)(C)C4)cn3C)c2C)c1` [Example 63, (R)-3-chloro-N-(3-(1-(cyclopentane-carbonyl)-2,2-dimethylpiperidin-4-yl)-1,4-dimethyl-1H-pyrrolo[2,3-b]pyridin-5-yl)-5-methoxybenzamide], the IC50 amounted to 12 nM.

Compound `Cc1c(NC(=O)c2cc(O)cc(C#N)c2)cnc2c1c([C@@H]1CCN(C(=O)C3CCCC3)C(C)(C)C1)cn2C` [Example 64, (R)-3-cyano-N-(3-(1-(cyclopentanecarbonyl)-2,2-dimethylpiperidin-4-yl)-1,4-dimethyl-1H-pyrrolo[2,3-b]pyridin-5-yl)-5-hydroxybenzamide] registered an IC50 of 10.2 nM.

Compound `Cn1cc([C@@H]2CCN(C(=O)C3CCCC3)C(C)(C)C2)c2c(C(F)(F)F)c(NC(=O)c3cccc(C#N)c3)cnc21` [Example 65, (R)-3-cyano-N-(3-(1-(cyclopentanecarbonyl)-2,2-dimethylpiperidin-4-yl)-1-methyl-4-(trifluoromethyl)-1H-pyrrolo[2,3-b]pyridin-5-yl)benzamide] returned a concentration for half-maximal inhibition (IC50) of 10.7 nM.

In turn, `Cc1c(NC(=O)c2cccc(C#N)c2)cnc2c1c([C@@H]1CCN(C(=O)C[C@@H](O)C(F)(F)F)C(C)(C)C1)cn2C` [Example 73, 3-cyano-N-(3-((R)-2,2-dimethyl-1-((R)-4,4,4-trifluoro-3-hydroxybutanoyl)piperidin-4-yl)-1,4-dimethyl-1H-pyrrolo[2,3-b]pyridin-5-yl)benzamide] showed an IC50 of 25.3 nM.

Regarding `Cc1c(NC(=O)c2cccc(C#N)c2)cnc2c1c([C@@H]1CCN(C(=O)CC3CCCC3)C(C)(C)C1)cn2C` [Example 74, (R)-3-cyano-N-(3-(1-(2-cyclopentylacetyl)-2,2-dimethylpiperidin-4-yl)-1,4-dimethyl-1H-pyrrolo[2,3-b]pyridin-5-yl)benzamide], the concentration for half-maximal inhibition (IC50) was found to be 3.6 nM.

Compound `Cc1c(NC(=O)c2cccc(C#N)c2)cnc2c1c([C@@H]1CCN(C(=O)CC3CCCCC3)C(C)(C)C1)cn2C` [Example 75, (R)-3-cyano-N-(3-(1-(2-cyclohexylacetyl)-2,2-dimethylpiperidin-4-yl)-1,4-dimethyl-1H-pyrrolo[2,3-b]pyridin-5-yl)benzamide] returned an IC50 of 6.8 nM.

Turning to `Cc1c(NC(=O)c2cccc(C#N)c2)cnc2c1c([C@@H]1CCN(C(=O)CC3CCC3)C(C)(C)C1)cn2C` [Example 76, (R)-3-cyano-N-(3-(1-(2-cyclobutylacetyl)-2,2-dimethylpiperidin-4-yl)-1,4-dimethyl-1H-pyrrolo[2,3-b]pyridin-5-yl)benzamide], the half-inhibitory concentration (IC50) was 5 nM.

Compound `CC(C)C(=O)N1C[C@H]2CC[C@@H](C1)[C@@H]2c1cn(C)c2ncc(NC(=O)c3cccc(C#N)c3)c(C(F)(F)F)c12` [Example 77, 3-cyano-N-(3-((1R,5S,8r)-3-isobutyryl-3-azabicyclo[3.2.1]octan-8-yl)-1-methyl-4-(trifluoromethyl)-1H-pyrrolo[2,3-b]pyridin-5-yl)benzamide] had an IC50 of 8.9 nM.

Take `Cn1cc(C2[C@@H]3CC[C@H]2CN(C(=O)C2CCCC2)C3)c2c(C(F)(F)F)c(NC(=O)c3cccc(C#N)c3)cnc21` (stereo partly drawn) [Example 79, 3-cyano-N-{3-((1R,5S,8r)-3-(cyclopentanecarbonyl)-3-azabicyclo[3.2.1]octan-8-yl]-1-methyl-4-(trifluoromethyl)-1H-pyrrolo[2,3-b]pyridin-5-yl}benzamide]: the IC50 amounted to 4.1 nM.

`CC(C)C(=O)N1CC[C@@H](c2cn(C)c3ncc(NC(=O)c4cccc(C#N)c4F)c(C(F)(F)F)c23)[C@@H](C)C1` [Example 82, 3-cyano-2-fluoro-N-(3-((3R,4R)-1-isobutyryl-3-methylpiperidin-4-yl)-1-methyl-4-(trifluoromethyl)-1H-pyrrolo[2,3-b]pyridin-5-yl)benzamide] displayed an IC50 of 5.7 nM.

For the compound `Cc1c(NC(=O)c2cccc(C#N)c2)cnc2c1c([C@@H]1CCN(C(=O)C(C)C3CC3)C[C@@H]1C)cn2C` (stereo partly drawn) [Example 86, 3-cyano-N-(3-((3R,4R)-1-(2-cyclopropylpropanoyl)-3-methylpiperidin-4-yl)-1,4-dimethyl-1H-pyrrolo[2,3-b]pyridin-5-yl)benzamide], inhibition was half-maximal at 34.9 nM (IC50).

The compound `COc1cc(C#N)cc(C(=O)Nc2cnc3c(c([C@@H]4CCN(C(=O)C5CCCC5)[C@@H](C)C4)cn3C)c2C)c1` [Example 90, 3-cyano-N-(3-((2S,4R)-1-(cyclopentanecarbonyl)-2-methylpiperidin-4-yl)-1,4-dimethyl-1H-pyrrolo[2,3-b]pyridin-5-yl)-5-methoxybenzamide] showed an IC50 of 12.2 nM.

The compound `COc1ccc(C(=O)Nc2cnc3c(c(C4[C@@H]5CC[C@H]4CN(C(=O)C4CCCC4)C5)cn3C)c2C)cc1C#N` (stereo partly drawn) [Example 99, 3-cyano-N-(3-((1R,5S,8r)-3-(cyclopentanecarbonyl)-3-azabicyclo[3.2.1]octan-8-yl)-1,4-dimethyl-1H-pyrrolo[2,3-b]pyridin-5-yl)-4-methoxybenzamide] had an IC50 of 14.7 nM.

Take `Cc1c(NC(=O)c2cccc(C#N)c2)cnc2c1c(C1CCN(C(=O)CC(C)C)CC1)cn2C` [Example 109, 3-cyano-N-(1,4-dimethyl-3-(1-(3-methylbutanoyl)piperidin-4-yl)-1H-pyrrolo[2,3-b]pyridin-5-yl)benzamide]: the midpoint of inhibition, the IC50, lay at 32.1 nM.

The compound `COc1ccc(C(=O)Nc2cnc3c(c(C4CCN(C(=O)C(C)C)CC4)cn3C)c2C)cc1C#N` [Example 110, 3-cyano-N-(3-(1-isobutyrylpiperidin-4-yl)-1,4-dimethyl-1H-pyrrolo[2,3-b]pyridin-5-yl)-4-methoxybenzamide] gave an IC50 of 24.7 nM.

Consider `Cc1c(NC(=O)c2cccc(C#N)c2)cnc2c1c([C@@H]1CCN(C(=O)C(C)C)[C@@H](C)C1)cn2C` [Example 113, 3-cyano-N-(3-((2S,4R)-1-isobutyryl-2-methylpiperidin-4-yl)-1,4-dimethyl-1H-pyrrolo[2,3-b]pyridin-5-yl)benzamide], for which the concentration for half-maximal inhibition (IC50) worked out at 29.8 nM.

Source of the values: patent US10227346B2, “Methyl- and trifluoromethyl-substituted pyrrolopyridine modulators of RORC2 and methods of use therof” (Pfizer Inc., priority 2014, dated 2019).
